Reference: patent US20140018545A1, “Inhibitors of Dipeptidylpeptidase IV” (Trustees of Tufts College, priority 2004, published 2014)
Read-outs that look alike come from different tables or passages of the source.

Tests used:
DP9 = DP9 (Homo sapiens, UniProt Q86TI2); experiment: Dipeptidyl peptidase 9 inhibition assay (Example 1 assay with DP9 substituted for DPIV); type: biochemical; details: for DP9/DPIV ratio: ratio of IC50 values, selectivity for DPIV
Protocol: In this example, the assay was conducted for DPIV and DP9. The ratio of IC50 values for each tested compound was calculated in order to determine the selectivity for the DPIV isoform. IC50 values were measured at the same pH throughout the assay.

DPIV [1] = molecular target: T1, DPIV (Homo sapiens, UniProt P27487); experiment: DPIV inhibition assay (L-alanyl-L-proline-para-nitroanilide substrate, absorbance at 410 nm)
T1 sequence (P27487 whole entry): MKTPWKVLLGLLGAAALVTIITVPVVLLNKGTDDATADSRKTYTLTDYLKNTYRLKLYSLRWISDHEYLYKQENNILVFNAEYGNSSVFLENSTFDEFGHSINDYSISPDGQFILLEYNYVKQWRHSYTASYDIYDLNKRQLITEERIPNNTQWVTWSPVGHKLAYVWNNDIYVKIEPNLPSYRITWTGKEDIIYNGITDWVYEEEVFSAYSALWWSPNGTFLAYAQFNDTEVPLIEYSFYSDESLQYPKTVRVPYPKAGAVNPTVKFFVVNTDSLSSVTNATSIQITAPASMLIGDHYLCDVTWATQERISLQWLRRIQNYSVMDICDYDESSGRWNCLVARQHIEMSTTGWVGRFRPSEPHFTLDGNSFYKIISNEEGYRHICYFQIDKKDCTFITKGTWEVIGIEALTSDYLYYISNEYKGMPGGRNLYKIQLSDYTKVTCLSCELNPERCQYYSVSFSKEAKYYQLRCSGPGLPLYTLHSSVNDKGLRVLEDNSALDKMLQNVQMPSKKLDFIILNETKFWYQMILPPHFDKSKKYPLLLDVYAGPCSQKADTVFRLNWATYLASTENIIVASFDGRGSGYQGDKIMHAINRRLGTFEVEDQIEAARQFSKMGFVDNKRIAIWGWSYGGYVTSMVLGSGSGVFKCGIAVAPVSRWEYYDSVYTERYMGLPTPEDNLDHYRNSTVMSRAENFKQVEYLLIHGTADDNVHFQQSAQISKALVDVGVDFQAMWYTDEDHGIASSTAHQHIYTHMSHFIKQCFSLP
Protocol: (§1) The inhibitor solution was prepared by dissolving 3-5 mg of inhibitor in pH 2 solution (0.01 N HCl), such that the concentration of the solution was equal to 1 mg/10 μL. A 10 μL sample of this solution was then added to 990 μL of pH 8 buffer (0.1 M HEPES, 0.14 M NaCl), and the solution was allowed to stand at room temperature overnight.
(§2) The substrate solution was prepared by dissolving 2.0 mg of L-alanyl-L-proline-para-nitroanilide into 20 mL of pH 8 buffer.
(§3) 250 μL of enzyme solution was added to well #B1 to #H1, #A2 to #H2, and #A3 to #H3 of a 96 well plate, while well #A1 received 250 μL of pH 8 buffer instead of enzyme solution. 90 μL of pH 8 buffer was then added to column 5 (from well #A5 to #H5).
(§4) A 1:10 dilution was then performed by adding inhibitor solution to #A5 and the solution was mixed well before transferring 10 μL of this solution from #A5 to #B5. The solution in #B5 was then mixed well before transferring 10 μL of this solution from #B5 to #C5. The solution in #C5 was then mixed well before transferring 10 μL of this solution from #C5 to #D5. The solution in #D5 was then mixed well before transferring 10 μL of this solution from #D5 to #E5. The solution in #E5 was then mixed well before transferring 10 μL of this solution from #E5 to #F5. The solution in #F5 was then mixed well before transferring 10 μL of this solution from #F5 to #G5. The solution in #G5 was then mixed well before transferring 10 μL of this solution from #G5 to #H5.
(§5) A 30 μL aliquot was then transferred from #H5 to #H3 for row H, and the contents were mixed well. The analogous procedure was repeated for rows G, F, E, D, C, B, and A sequentially. The plate was then shaken on a plate shaker for 5 minutes before allowing the plate to incubate at room temperature for an additional 5 minutes.
(§6) Once the plate had been allowed to incubate, 30 μL of substrate was added to each well except well #A1. The plate was then placed on a plate shaker for 5 minutes before allowing the plate to incubate at room temperature for 25 minutes. The absorbance was then immediately read at a wavelength of 410 nm.

DPIV [2] = molecular target: T1, DPIV; details: pH 8
Protocol: as §1, §2, §3, §4, §5, §6

DP8 = DP8 (Homo sapiens, UniProt Q6V1X1); experiment: Dipeptidyl peptidase 8 inhibition assay (Example 1 assay with DP8 substituted for DPIV); type: biochemical; details: at the pH values tested
DP8, sequence (Q6V1X1 whole entry, species assumed): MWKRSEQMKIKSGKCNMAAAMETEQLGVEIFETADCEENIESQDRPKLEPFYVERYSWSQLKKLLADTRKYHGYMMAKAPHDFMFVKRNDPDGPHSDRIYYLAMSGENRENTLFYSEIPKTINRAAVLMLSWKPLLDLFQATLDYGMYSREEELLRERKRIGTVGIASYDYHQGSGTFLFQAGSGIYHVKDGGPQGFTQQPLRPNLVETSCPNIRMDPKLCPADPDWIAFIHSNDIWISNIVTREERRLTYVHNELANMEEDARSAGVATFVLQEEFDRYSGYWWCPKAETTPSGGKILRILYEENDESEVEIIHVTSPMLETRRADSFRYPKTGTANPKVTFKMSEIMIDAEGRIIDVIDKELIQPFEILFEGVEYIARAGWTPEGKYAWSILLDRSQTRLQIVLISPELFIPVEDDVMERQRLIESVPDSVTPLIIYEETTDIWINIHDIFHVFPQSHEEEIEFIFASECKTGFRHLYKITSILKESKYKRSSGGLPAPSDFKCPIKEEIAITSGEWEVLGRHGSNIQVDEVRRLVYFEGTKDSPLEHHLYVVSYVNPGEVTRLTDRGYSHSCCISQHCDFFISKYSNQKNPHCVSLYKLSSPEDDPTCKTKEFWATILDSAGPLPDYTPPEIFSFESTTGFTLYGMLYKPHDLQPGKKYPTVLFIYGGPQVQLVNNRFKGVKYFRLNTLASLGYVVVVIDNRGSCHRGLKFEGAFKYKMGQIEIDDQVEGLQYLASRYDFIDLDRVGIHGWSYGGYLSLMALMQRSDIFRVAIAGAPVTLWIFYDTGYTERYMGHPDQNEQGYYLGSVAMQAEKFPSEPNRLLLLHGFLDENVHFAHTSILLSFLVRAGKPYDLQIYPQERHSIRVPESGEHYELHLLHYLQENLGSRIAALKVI
Protocol: L-Ala-[5-(HOCH2)-2-boroPro] was also tested to determine its inhibition of dipeptidyl peptidases 8 and 9 (DP8 and DP9). The assay is the same as that described in Example 1, except that DP8 or DP9 was substituted for DPIV.

[3] = Example 6, same pH throughout the assay (pH not stated), read-out: DP9 IC50
[4] = read-out: DPIV IC50, Example 6, same pH throughout the assay (pH not stated)

DP9, sequence (Q86TI2 whole entry, species assumed, canonical isoform): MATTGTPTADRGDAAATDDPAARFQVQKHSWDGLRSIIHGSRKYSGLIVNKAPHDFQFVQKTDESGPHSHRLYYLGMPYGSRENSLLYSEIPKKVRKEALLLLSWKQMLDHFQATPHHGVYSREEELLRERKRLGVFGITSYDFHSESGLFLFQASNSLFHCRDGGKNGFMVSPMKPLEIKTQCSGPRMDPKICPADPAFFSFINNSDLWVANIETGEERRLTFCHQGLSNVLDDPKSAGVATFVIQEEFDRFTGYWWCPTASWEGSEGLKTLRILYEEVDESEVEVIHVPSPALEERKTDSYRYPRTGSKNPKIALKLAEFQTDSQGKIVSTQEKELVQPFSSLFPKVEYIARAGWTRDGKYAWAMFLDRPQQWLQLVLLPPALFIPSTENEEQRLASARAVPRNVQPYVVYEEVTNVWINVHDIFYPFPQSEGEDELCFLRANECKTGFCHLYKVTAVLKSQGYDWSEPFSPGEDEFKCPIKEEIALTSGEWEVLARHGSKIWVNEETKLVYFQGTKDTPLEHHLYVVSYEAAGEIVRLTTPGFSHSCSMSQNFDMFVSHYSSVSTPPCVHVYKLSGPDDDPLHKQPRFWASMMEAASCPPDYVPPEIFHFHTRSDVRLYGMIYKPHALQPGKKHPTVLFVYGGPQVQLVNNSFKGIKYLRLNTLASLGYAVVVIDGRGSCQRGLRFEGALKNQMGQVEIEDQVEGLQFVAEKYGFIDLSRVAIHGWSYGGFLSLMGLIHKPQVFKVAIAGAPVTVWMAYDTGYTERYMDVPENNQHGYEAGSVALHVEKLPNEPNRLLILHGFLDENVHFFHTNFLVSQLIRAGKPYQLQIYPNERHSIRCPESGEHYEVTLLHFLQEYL

Molecule: C[C@H](NC(=O)[C@@H](N)CC(=O)O)B(O)O [Asp-boroAla]
- IC50 (DP9; [3]): 5000 µM
- DP9/DPIV ratio (DP9): 6.28
- IC50 (DPIV [1]; [4]): 797000 nM

Molecule: C[C@H](NC(=O)[C@@H](N)CCCN=C(N)N)B(O)O [Arg-boroAla]
- IC50 (DP9; [3]): 0.023 µM
- DP9/DPIV ratio (DP9): 2.88
- IC50 (DPIV [1]; [4]): 8 nM

Molecule: CC1CC[C@@H](B(O)O)N1C(=O)[C@H](C)N (stereo partly drawn) [L-Ala-5-Me-boroPro]
- IC50 (DPIV [1]; IC50 at pH 2, DPIV, pH 2): 11 nM
- IC50 (DPIV [1]; IC50 at pH 8, DPIV, pH 8): 15400 nM

Molecule: N=C(N)NCCC[C@H](N)C(=O)N1CCC[C@H]1B(O)O [Arg-boroPro]
- IC50 (DP9; [3]): 0.824 µM
- DP9/DPIV ratio (DP9): 412
- IC50 (DPIV [1]; DPIV IC50 (nM), Example 6, same pH throughout the assay (pH not stated)): 2 nM

Molecule: N[C@@H](CCC(=O)O)C(=O)N1CCC[C@H]1B(O)O [Glu-boroPro]
- IC50 (DPIV [2]): 2.4 µM
- IC50 (DPIV [1]; [4]): 3 nM

Molecule: C[C@H](N)C(=O)N1C(CO)CCC1B(O)O (stereo partly drawn) [L-Ala-[5-(HOCH2)-2-boroPro]]
- IC50 (DP8): > 70 µM
- IC50 (DP9; DP9, at the pH values tested, read-out: IC50): > 70 µM
- IC50 (DP9; [3]): 28000 µM
- selectivity for DPIV over DP9 (DP9; in words, based on the IC50 ratios of Example 6): highly selective for DPIV
- DP9/DPIV ratio (DP9): 700,000
- IC50 (DPIV [1]; [4]): 40 nM
- IC50 (DPIV [1]; read-out: IC50 at pH 2, DPIV, pH 2): 21.9 nM
- IC50 (DPIV [1]; read-out: IC50 at pH 8, DPIV, pH 8): 12900 nM

Molecule: Arg-boroEtGly
- IC50 (DP9; [3]): 0.007 µM
- DP9/DPIV ratio (DP9): 0.70
- IC50 (DPIV [1]; [4]): 10 nM

Molecule: CC[C@H](NC(=O)[C@@H](N)CCC(=O)O)B(O)O [Glu-boroEtg]
- IC50 (DPIV [1]; IC50, DPIV, pH 8): 49 nM
